From PubChem BioAssay (NCI)
“And” between values parts separate entries of the source, which are not always exact repeats. Equal values may be shown once.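 A five-concentration, 48-hour dose response in 96-well plates underlies each endpoint, interpolated linearly between surrounding concentrations. The concentration for 50% growth inhibition is given as GI50. TGI: total growth inhibition.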

Legend:
Experiment in all cases: growth of human tumour cells (NCI), 48 h
[1] = tested on: K-562 leukemia
[2] = tested on: SK-OV-3 ovarian
[3] = tested on: DMS 114 small cell lung
[4] = tested on: UACC-257 melanoma
[5] = tested on: ACHN renal
[6] = tested on: M19-MEL melanoma
[7] = tested on: DMS 273 small cell lung
[8] = tested on: SN12C renal
[9] = tested on: MOLT-4 leukemia
[10] = tested on: T-47D breast
[11] = tested on: PC-3 prostate

Row | Structure (SMILES) | TGI [1] | TGI [2] | TGI [3] [µM] | TGI [4] | TGI [5] | TGI [6] [µM] | TGI [7] [µM] | TGI [8] | TGI [9] | GI50 [1] [µM] | TGI [10] [µM] | GI50 [2] | GI50 [5] | GI50 [9] | GI50 [11] [µM] | TGI [11] [µM] | GI50 [10] | GI50 [4] | GI50 [8]
1 | CCN(CC)CC1c2ccccc2C(CNc2ccccc2)N1C (configuration not stated) | > 100 µM | > 100 µM | > 100 | > 100 µM | > 100 µM | > 100 | > 100 | > 100 µM | > 100 µM |  |  |  |  |  |  |  |  |  | 
2 | NC(=O)c1csc(C2OC(CO)C(O)C2O)n1 (configuration not stated) | 7060 µM | > 5120 µM | 3160 | > 10000 µM | > 10000 µM | > 5520 | 9960 | > 8480 µM | 3600 µM | 8.88 | > 5620 | 79.9 µM | 54.5 µM | 17.8 µM | 29.5 | 2560 |  |  | 
3 | COC(=O)C1(C)CCc2c(OC)ccc(OC)c2C1=O (configuration not stated) | > 100 µM | > 100 µM | > 100 | > 100 µM | > 100 µM | > 100 | > 100 | > 100 µM | > 100 µM |  |  |  |  |  |  |  |  |  | 
4 | COc1cc(C(=O)C/C(CCC(=O)Nc2ccccc2[N+](=O)[O-])=N\NC(N)=O)ccc1O | > 100 µM | > 100 µM | > 100 | > 100 µM | > 100 µM | > 100 | > 100 | > 100 µM | > 100 µM |  |  |  |  |  |  |  |  |  | 
5 | Fc1ccc(C2SCc3nc4ccccc4n32)c(F)c1 (configuration not stated) | > 100 µM | > 100 µM | > 100 | > 100 µM | > 100 µM | > 100 | > 100 | > 100 µM | > 100 µM |  |  |  |  |  |  |  |  |  | 
6 | O=C(/C=C/c1ccccc1)CCN1CCOCC1 | 12.6 µM | 51.6 µM | 23.9 | 21.3 µM | 28.6 µM | 28.3 | 35.9 | 35.9 µM | 29.7 µM |  | 44 |  |  |  |  | 31.5 |  |  | 
7 | Nc1nc(OCc2ccccc2)c2[nH]cnc2n1 | 400 µM and 307 µM | 71.9 µM and 160 µM and 60 µM | 191 | 400 µM and 736 µM | 244 µM and 125 µM | 400 | 400 | 400 µM and 193 µM | 200 µM and 126 µM | 46.4 | 205 | 21.8 µM and 20.8 µM | 23.1 µM and 23.4 µM | 88.4 µM and 33.5 µM | 53.7 | 628 | 24.9 µM and 23.2 µM | 39.8 µM and 157 µM | 29.4 µM and 26.4 µM
8 | COC(=O)C1CC2CC(=NNC(N)=O)CC2C1 (configuration not stated) | > 100 µM | > 100 µM | > 100 | > 100 µM | > 100 µM | > 100 | > 100 | > 100 µM | > 100 µM |  |  |  |  |  |  |  |  |  | 
9 | CC1(O)C=CC(=O)C=C1 | > 100 µM | > 100 µM | 32.3 | 34.2 µM | > 62.8 µM | 58.6 | 38.5 | > 100 µM | > 72.7 µM |  |  |  |  |  |  |  |  |  | 
10 | Cc1ccc2c(C3Cc4ccccc4N3C(=O)/C=C\C(=O)O)c(C)[nH]c2c1 (configuration not stated) | 73 µM | > 100 µM | > 100 | > 100 µM | > 100 µM | > 100 | > 100 | > 100 µM | 94.6 µM |  |  |  |  |  |  |  |  |  | 
11 | CCOC(=O)C1C(=S)NC(=O)C1C#N (configuration not stated) | > 100 µM | > 100 µM | > 100 | > 100 µM | > 100 µM | > 100 | > 100 | > 100 µM | > 100 µM |  |  |  |  |  |  |  |  |  | 
12 | CC(=O)Nc1ccc(SC#N)c2c(NC(C)=O)cccc12 | > 100 µM | > 100 µM | > 100 | > 100 µM | > 100 µM | > 100 | > 100 | > 100 µM | > 82.1 µM |  |  |  |  |  |  |  |  |  | 
